Measured values reported in ChEMBL document CHEMBL1125886, “Interphenylene 7-oxabicyclo[2.2.1]heptane thromboxane A2 antagonists. Semicarbazone omega-chains” (J Med Chem, 1991).

How the values were obtained:
[1] = species on record: Homo sapiens; assay: The compound was tested for inhibition of arachidonic acid(800 uM) induced platelet aggregation in human platelet rich plasma.; type: functional; settings: read-out: I50
[2] = species on record: Homo sapiens; assay: The compound was tested for inhibition of U-46,619(10 uM) induced platelet aggregation in human platelet rich plasma(PRP).; type: functional; settings: read-out: I50
[3] = biological target: T1, Thromboxane A2 receptor (Homo sapiens, UniProt P21731); assay: The compound was tested for inhibition of specific binding of [3H]-SQ 29,548 to thromboxane A2 receptor in human platelet membranes; type: cell membranes
T1 sequence (P21731 whole entry): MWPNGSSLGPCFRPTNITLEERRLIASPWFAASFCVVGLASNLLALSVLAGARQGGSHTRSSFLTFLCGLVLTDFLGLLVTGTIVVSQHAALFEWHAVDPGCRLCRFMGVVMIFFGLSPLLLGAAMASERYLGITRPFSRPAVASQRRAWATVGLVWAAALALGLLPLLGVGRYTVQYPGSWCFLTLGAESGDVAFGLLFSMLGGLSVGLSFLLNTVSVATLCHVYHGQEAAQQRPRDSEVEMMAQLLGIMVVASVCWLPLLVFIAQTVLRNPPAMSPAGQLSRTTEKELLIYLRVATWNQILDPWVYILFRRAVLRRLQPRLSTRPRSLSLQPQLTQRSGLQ

[4] = test system: Mus musculus; assay: The compound was tested in vivo for duration of action after 0.2 mg/kg peroral administration to protect from U-46,619-induced(2.0 mg/kg, iv) death in mice; type: ADME, organism-based; design: dose 0.2 mg/kg, route oral; settings: po
[5] = test system: Mus musculus; assay: The compound was tested in vivo for duration of action after 10 mg/kg peroral administration to protect from U-46,619-induced(2.0 mg/kg, iv) death in mice; type: ADME, organism-based; design: dose 10 mg/kg, route oral; settings: po

Compound `O=C(O)Cc1ccc(CCC2C3CCC(O3)C2/C=N/NC(=O)Nc2ccccc2)cc1` (stereo not drawn) has an IC50 [1] of 688000 nM.

With `O=C(O)CCC/C=C\CC1C2CCC(O2)C1/C=N/NC(=O)Nc1ccccc1` (stereo not drawn) the IC50 [1] was 230 nM, the IC50 [2] was 710 nM and the Kd [3] was 39.4 nM.

`O=C(O)COc1cccc(CC2C3CCC(O3)C2/C=N/NC(=O)Nc2ccccc2)c1` (stereo not drawn) was tested, and the IC50 [1] was 7200 nM, the IC50 [2] was 25000 nM and the Kd [3] was 1200 nM.

For `O=C(O)CCCc1ccccc1CC1C2CCC(O2)C1/C=N/NC(=O)Nc1ccccc1` (stereo not drawn), the T50 [4] was 8.7 h, the IC50 [1] was 12 nM and the IC50 [2] was 72 nM. For the same compound, the Kd [3] was 21.1 nM.

`O=C(O)CCc1ccccc1CC1C2CCC(O2)C1/C=N/NC(=O)Nc1ccccc1` (stereo not drawn) was tested, and the T50 [4] was 16 h, the IC50 [1] was 3 nM and the IC50 [2] was 12 nM. The Kd [3] was 1 nM.

With `O=C(O)COc1ccccc1CC1C2CCC(O2)C1/C=N/NC(=O)Nc1ccccc1` (stereo not drawn) the T50 [4] was 3.6 h, the IC50 [1] was 15 nM and the IC50 [2] was 46 nM. The Kd [3] was 6 nM.

For `O=C(O)Cc1cccc(CC2C3CCC(O3)C2/C=N/NC(=O)Nc2ccccc2)c1` (stereo not drawn), the T50 [4] was 1.7 h, the IC50 [1] was 370 nM and the IC50 [2] was 4600 nM. It also gave a T50 [5] of 8.3 h and a Kd [3] of 171 nM.

In the case of `O=C(O)Cc1cccc(CCC2C3CCC(O3)C2/C=N/NC(=O)Nc2ccccc2)c1` (stereo not drawn), the IC50 [1] is reported as 30000 nM, the IC50 [2] is reported as 133000 nM and the Kd [3] is reported as 1070 nM.

`O=C(O)Cc1ccc(CC2C3CCC(O3)C2/C=N/NC(=O)Nc2ccccc2)cc1` (stereo not drawn) gave an IC50 [1] of 310000 nM.
